Results reported in publication PMC10004634 (PLOS ONE, 2023).
Read-outs that look alike come from different tables or passages of the source.

Columns and labels:
Test in all cases: biochemical
Set-up in all cases: KINOMEscan scanMAX competition binding, DNA-tagged kinases, qPCR read-out, percent control at 300 nM
EPHB2 = target: T1, EPHB2 (Homo sapiens, UniProt P29323)
T1 sequence (P29323 1-1055): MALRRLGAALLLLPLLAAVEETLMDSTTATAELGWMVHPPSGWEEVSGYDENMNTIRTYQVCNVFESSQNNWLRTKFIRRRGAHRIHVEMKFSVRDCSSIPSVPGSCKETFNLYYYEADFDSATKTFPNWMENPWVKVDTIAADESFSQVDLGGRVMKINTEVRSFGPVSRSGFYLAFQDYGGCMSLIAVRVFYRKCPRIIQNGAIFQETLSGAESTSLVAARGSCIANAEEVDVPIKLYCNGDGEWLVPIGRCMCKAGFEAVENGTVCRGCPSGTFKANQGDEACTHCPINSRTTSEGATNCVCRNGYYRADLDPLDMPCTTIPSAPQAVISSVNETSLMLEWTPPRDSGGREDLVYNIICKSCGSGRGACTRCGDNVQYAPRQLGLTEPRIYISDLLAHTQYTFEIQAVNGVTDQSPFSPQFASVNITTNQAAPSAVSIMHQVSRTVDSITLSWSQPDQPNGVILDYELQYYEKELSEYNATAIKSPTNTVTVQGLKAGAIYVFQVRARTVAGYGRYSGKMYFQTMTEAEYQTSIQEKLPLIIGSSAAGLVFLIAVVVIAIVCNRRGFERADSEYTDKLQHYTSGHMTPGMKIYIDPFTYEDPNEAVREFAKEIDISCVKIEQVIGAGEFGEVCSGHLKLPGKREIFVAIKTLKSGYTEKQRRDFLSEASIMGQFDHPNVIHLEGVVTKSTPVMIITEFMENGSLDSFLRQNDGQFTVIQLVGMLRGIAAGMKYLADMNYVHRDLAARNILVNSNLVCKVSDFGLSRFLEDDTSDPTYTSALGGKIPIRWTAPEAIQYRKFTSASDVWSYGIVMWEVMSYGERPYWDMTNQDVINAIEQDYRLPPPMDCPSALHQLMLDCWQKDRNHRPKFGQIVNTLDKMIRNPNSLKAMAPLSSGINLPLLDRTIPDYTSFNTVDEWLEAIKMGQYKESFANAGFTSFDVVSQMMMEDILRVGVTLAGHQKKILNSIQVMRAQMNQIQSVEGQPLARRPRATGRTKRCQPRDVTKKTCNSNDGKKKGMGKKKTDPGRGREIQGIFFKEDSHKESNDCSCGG

FER = FER (Homo sapiens, UniProt P16591)
GRK4 = GRK4 (Homo sapiens, UniProt P32298)
TEC = target: T2, TEC (Homo sapiens, UniProt P42680)
T2 sequence (P42680 1-631): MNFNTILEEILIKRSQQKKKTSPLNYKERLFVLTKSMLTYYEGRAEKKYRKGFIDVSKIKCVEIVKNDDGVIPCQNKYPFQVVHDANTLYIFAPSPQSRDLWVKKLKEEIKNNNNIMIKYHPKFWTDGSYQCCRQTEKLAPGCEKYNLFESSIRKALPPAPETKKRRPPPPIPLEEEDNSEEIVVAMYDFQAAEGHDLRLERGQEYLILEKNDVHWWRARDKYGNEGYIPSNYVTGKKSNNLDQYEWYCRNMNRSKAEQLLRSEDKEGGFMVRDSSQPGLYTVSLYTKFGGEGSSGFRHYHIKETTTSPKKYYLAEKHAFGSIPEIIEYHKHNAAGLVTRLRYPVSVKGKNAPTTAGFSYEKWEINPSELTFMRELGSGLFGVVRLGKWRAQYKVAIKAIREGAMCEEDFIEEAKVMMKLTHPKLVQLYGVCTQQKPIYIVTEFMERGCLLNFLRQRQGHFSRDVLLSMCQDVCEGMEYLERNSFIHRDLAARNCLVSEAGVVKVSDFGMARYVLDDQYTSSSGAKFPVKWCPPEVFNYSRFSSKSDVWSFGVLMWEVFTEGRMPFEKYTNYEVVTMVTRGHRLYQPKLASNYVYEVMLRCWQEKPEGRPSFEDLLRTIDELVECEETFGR

TRKA = target: T3, TRKA (Homo sapiens, UniProt P04629)
T3 construct: gene NTRK1

[1] = read-out: Percent control / Tirabrutinib
[2] = read-out: Percent control / Ibrutinib
[3] = read-out: Percent control / Zanubrutinib
[4] = read-out: Percent control / Acalabrutinib

GRK4, sequence (P32298 whole entry): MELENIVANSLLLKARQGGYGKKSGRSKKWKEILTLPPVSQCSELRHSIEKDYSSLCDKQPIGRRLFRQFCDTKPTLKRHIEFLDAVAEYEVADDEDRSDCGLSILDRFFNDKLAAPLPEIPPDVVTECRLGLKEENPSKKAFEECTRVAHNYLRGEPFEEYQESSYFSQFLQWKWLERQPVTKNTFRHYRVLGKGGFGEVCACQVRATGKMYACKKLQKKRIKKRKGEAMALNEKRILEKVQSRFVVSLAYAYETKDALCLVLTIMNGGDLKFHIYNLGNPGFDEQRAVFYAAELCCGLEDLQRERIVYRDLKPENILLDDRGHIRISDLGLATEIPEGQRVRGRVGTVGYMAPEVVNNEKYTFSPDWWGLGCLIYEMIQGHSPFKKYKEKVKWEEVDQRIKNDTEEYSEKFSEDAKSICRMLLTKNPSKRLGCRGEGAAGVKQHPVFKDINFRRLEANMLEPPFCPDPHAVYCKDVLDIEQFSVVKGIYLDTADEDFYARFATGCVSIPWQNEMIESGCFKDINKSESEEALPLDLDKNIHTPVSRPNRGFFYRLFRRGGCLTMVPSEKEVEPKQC
FER, sequence (P16591 whole entry): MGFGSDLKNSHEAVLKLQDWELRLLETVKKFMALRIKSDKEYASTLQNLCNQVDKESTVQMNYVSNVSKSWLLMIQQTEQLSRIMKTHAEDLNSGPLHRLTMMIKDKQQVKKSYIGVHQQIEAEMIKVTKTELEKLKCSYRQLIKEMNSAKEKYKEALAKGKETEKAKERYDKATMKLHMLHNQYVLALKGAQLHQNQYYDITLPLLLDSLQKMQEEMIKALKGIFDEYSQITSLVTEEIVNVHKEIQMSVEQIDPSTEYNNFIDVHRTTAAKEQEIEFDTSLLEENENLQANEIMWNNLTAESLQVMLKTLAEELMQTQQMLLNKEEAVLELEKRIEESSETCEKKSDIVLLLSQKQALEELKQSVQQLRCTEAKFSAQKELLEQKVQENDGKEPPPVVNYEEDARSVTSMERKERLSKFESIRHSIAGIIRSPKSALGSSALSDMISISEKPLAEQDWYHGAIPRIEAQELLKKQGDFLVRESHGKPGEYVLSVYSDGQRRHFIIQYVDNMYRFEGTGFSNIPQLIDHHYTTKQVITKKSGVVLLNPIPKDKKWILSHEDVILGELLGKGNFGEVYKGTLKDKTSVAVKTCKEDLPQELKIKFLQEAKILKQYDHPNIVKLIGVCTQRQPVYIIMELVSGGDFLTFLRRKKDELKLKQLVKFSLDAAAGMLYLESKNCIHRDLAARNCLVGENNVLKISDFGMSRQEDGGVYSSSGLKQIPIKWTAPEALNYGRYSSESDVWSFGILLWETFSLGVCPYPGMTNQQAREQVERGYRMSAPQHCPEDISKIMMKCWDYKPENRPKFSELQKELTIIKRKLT
T3 sequence (P04629 whole entry): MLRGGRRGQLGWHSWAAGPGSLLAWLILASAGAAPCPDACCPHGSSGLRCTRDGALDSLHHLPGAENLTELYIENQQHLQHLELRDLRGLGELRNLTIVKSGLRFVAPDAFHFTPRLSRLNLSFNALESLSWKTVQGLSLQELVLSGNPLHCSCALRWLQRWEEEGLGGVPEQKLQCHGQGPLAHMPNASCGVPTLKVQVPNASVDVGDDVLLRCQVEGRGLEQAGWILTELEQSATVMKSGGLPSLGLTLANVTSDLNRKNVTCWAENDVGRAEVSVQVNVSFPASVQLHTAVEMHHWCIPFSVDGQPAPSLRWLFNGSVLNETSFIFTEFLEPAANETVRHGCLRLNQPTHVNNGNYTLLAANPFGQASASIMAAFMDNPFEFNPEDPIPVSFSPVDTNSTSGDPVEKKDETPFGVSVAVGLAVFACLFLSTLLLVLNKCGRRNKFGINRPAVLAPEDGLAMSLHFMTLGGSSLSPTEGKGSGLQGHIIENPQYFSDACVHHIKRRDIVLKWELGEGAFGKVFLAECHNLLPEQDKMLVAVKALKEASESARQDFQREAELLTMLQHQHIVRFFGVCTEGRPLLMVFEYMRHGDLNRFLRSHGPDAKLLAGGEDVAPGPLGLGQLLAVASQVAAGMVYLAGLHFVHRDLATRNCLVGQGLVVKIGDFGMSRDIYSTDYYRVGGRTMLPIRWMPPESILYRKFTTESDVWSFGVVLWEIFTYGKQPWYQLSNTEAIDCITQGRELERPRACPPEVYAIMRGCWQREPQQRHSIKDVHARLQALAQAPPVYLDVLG

CC#CC(=O)N1CC[C@@H](n2c(=O)n(-c3ccc(Oc4ccccc4)cc3)c3c(N)ncnc32)C1 [Tirabrutinib]
remaining binding at 0.3 µM (EPHB2; [1]): 87% | remaining binding at 0.3 µM (FER; [1]): 93% | remaining binding at 0.3 µM (GRK4; [1]): 74% | remaining binding at 0.3 µM (TEC; [1]): 7.8% | remaining binding at 0.3 µM (TRKA; [1]): 83%

C=CC(=O)N1CCC[C@@H](n2nc(-c3ccc(Oc4ccccc4)cc3)c3c(N)ncnc32)C1 [Ibrutinib]
remaining binding at 0.3 µM (FER; [2]): 94% | remaining binding at 0.3 µM (TEC; [2]): 6% | remaining binding at 0.3 µM (TRKA; [2]): 82%

C=CC(=O)N1CCC([C@@H]2CCNc3c(C(N)=O)c(-c4ccc(Oc5ccccc5)cc4)nn32)CC1 [Zanubrutinib]
remaining binding at 0.3 µM (EPHB2; [3]): 100% | remaining binding at 0.3 µM (FER; [3]): 100% | remaining binding at 0.3 µM (GRK4; [3]): 85% | remaining binding at 0.3 µM (TEC; [3]): 20% | remaining binding at 0.3 µM (TRKA; [3]): 99%

CC#CC(=O)N1CCC[C@H]1c1nc(-c2ccc(C(=O)Nc3ccccn3)cc2)c2c(N)nccn12 [Acalabrutinib]
remaining binding at 0.3 µM (EPHB2; [4]): 89% | remaining binding at 0.3 µM (FER; [4]): 84% | remaining binding at 0.3 µM (GRK4; [4]): 89% | remaining binding at 0.3 µM (TEC; [4]): 4.1% | remaining binding at 0.3 µM (TRKA; [4]): 88%
